Results: patent US20080293699A1, “Inhibitors of thapsigargin-induced cell death” (priority 2007, published 2008)

Molecular target: T1, ASK1 (Homo sapiens, UniProt Q99683)
T1 construct: expressed in transfected cells; host or cells: HEK293T
T1 sequence (Q99683 1-1374): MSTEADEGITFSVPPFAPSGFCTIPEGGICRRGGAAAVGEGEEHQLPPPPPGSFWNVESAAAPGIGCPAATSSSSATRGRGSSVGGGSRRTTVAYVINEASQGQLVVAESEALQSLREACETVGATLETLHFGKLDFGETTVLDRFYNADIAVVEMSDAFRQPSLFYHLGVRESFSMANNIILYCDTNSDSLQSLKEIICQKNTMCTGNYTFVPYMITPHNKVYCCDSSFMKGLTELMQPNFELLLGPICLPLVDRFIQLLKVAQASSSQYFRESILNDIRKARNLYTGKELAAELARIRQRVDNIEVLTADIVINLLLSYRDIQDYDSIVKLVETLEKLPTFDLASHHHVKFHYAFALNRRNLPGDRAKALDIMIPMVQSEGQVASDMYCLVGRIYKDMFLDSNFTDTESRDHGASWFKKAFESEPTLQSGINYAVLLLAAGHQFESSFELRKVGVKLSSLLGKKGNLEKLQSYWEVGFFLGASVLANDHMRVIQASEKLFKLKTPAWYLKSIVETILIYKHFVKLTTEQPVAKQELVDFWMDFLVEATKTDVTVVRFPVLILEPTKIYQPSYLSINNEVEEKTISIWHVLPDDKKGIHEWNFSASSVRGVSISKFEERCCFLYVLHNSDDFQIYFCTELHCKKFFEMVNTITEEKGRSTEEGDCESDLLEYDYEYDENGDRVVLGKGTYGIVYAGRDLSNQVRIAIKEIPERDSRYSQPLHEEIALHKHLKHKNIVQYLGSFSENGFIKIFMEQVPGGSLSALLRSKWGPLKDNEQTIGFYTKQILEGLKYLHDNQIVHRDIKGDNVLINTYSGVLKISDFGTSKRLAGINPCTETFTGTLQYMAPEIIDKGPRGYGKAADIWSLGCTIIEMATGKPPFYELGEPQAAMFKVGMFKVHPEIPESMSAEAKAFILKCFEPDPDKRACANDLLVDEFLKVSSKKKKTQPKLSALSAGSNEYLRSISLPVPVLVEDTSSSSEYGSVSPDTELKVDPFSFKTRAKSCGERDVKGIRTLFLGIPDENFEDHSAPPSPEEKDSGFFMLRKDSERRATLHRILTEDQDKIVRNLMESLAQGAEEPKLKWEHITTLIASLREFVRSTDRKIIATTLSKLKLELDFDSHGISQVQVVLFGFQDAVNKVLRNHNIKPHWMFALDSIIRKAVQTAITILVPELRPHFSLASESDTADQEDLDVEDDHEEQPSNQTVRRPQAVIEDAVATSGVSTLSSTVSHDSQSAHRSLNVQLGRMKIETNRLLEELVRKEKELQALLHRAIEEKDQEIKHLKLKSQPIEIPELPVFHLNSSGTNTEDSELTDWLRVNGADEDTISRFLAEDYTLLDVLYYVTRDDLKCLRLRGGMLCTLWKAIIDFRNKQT
Test: ASK1-MKK6-p38 coupled in vitro kinase assay
Assay type: biochemical
Description: Suppression of thapsigargin-induced phosphorylation of p38MAPK was also measured by a quantitative ELISA-methods, with IC50 for p38MAPK phosphorylation estimated at <5 μM. In contrast, thapsigargin-induced expression of CHOP, expression of ATF4, proteolytic processing of ATF6, phosphorylation of eIF2a (Ser 51), auto-phosphorylation of Ire1a or auto-phosphorylation of ASK1 were not inhibited directly by CID-2878746 at concentrations up to 50 μM tested by in vitro kinase assay using p32-γ-ATP substrate. […] Thapsigargin-induced reductions in phosphorylation of ASK1 at the serine 967 site in ASK1 transfected 293T cells are inhibited by compound 5962123 at concentrations of 50-100 μM, as determined by immunoblotting using anti-phospho-specific (ser 967) antibody, but thapsigargin-induced changes in phosphorylation of ASK1 at ser 83 and thr 845 are not modulated by compound 5962123 at concentrations as high as 100 μM in ASK1-transfected HEK293T cells.
C-Jun and p38 MAPK work downstream of the Ire1 pathway (see FIG. 21), we tested whether one of our hit compounds (6239507) inhibits autophosphorylation of any of kinases in this Ire1-ASK1-JNK/p38 MAPK pathway. […] An Ire1 autophosphorylation assay was performed. […] Incorporation values of ^32P-γ-ATP were evaluated by a scintillation counter. […] Incorporation values of ^32P-γ-ATP were evaluated by a scintillation counter. […]

Structure (SMILES)	Thapsigargin-induced activation of ASK1 in cells (coupled assay with MKK6 and p38MAPK, ASK1 immunoprecipitated from compound-treated (100 μM) HEK293T cells)	Ask1's activity with respect to downstream kinases MKK6 and p38 MAPK (kinases incubated with 50 μM compound in vitro)
CCN(CC)c1ccc(C2Nc3ccccc3NC3=C2C(=O)CC(c2ccccc2)C3)cc1 (centres unmarked) [Compound 5962123, 6-(4-diethylaminophenyl)-9-phenyl-5,6,8,9,10,11-hexahydrobenzo[c][1,5]benzodiazepin-7-one]	failed to inhibit	
COc1ccc(C2CC(=O)C3=C(C2)Nc2ccccc2NC3c2cccc(Oc3ccccc3)c2)cc1OC (centres unmarked) [Compound 6239507]		does not modulate
